Counter-ions that a name gives are not always drawn. Like-named read-outs stand apart in the source and are kept apart here.
Tested on: Guinea-pig PRP (platelet aggregation)
Experiment: (A) In vitro antiplatelet aggregation effect in guinea pigs (PRP), Table IV-1
Assay type: cell-based, guinea pig (Hartley male)
Details: Cavia porcellus, PRP 300,000/mm^3, 37° C.
Protocol: Nine parts by volume of blood was collected from the abdominal artery of Hartley male guinea-pigs (weight: about 300 g) in syringes containing 1 part by volume of 3.8% sodium citrate. The blood thus obtained was centrifuged at 200×g for 10 minutes at room temperature to obtain platelet rich plasma (PRP). Furthermore, the residue was centrifuged at 2000×g for 15 minutes to obtain platelet poor plasma (PPP). The measurement was effected by diluting PRP with PPP to 300,000/mm^3. PRP and PPP were put in cuvettes, and the measurement range of transmittance was adjusted to 0% in the case of PRP and to 100% in the case of PPP. Thereafter, a test sample drug dissolved in H2 O:MeOH (1:2) was added to PRP. After the PRP was incubated at 37° C. at 1000 rpm for 2 minutes, an aggregating agent was added to record an aggregation curve. The antiplatelet aggregation effect of the test sample drug was expressed by the concentration (IC50 : μM) at which the aggregation of the control sample was 50% inhibited. […] The measurement of platelet aggregation was carried out by using NBS HEMA TRACER 601.
In vitro antiplatelet aggregation tests; (A) and (B) Tables IV-1 and 2 show antiplatelet aggregation effects of test compounds evaluated as IC50 values (μM). The compound Nos. in Table I should be referred to for the structures of the compounds.

[1] = aggregating agent ADP, read-out: Guinea-pig PRP IC50, ADP
[2] = aggregating agent collagen 1 to 2 μg/ml, read-out: Guinea-pig PRP IC50, Collagen

Row | SMILES | IC50 [1] [µM] | IC50 [2] [µM]
1 | CCOC(=O)COC1CCN(C(=O)c2c(-c3ccc(-c4ccc(Cl)cc4)cc3)n(C)n(-c3ccc(C(=N)N)cc3)c2=O)CC1 [Compound No. 2] | 8.1 | 3.9
2 | Cn1cc(C(=O)N2CCC(OCC(=O)O)CC2)c(=O)n1-c1ccc(C(=N)N)cc1 [Compound No. 10] | 35 | 17
3 | CCOC(=O)COC1CCN(C(=O)c2cn(C)n(-c3ccc(C(=N)N)cc3)c2=O)CC1 [Compound No. 11] | 31 | 17
4 | Cn1c(-c2ccc(C(C)(C)C)cc2)c(C(=O)N2CCC(OCC(=O)O)CC2)c(=O)n1-c1ccc(C(=N)N)cc1 [Compound No. 28, 1-(4-amidinophenyl)-3-(4-t-butylphenyl)-4-([4-(carboxymethyloxy)-1-piperidinyl]carbonyl}-2-methyl-2H-pyrazol-5-one hydrochloride] | 25 | 17
5 | Cn1cc(C(=O)NCCCOCC(=O)O)c(=O)n1-c1ccc(C(=N)N)cc1 [compound 7] | 300 | 
6 | CCOC(=O)COCCN(C)C(=O)c1c(-c2ccccc2)n(C)n(-c2ccc(C(=N)N)cc2)c1=O [compound 15] | 114 | 57
7 | Cn1c(-c2ccccc2)c(C(=O)N2CCC(OCC(=O)O)CC2)c(=O)n1-c1ccc(C(=N)N)cc1 [compound 17] | 20 | 23
8 | CCOC(=O)COCCNC(=O)c1c(-c2ccc(-c3ccccc3)cc2)n(C)n(-c2ccc(C(=N)N)cc2)c1=O [compound 20] | 30 | 12
9 | CCOC(=O)COC1CCN(C(=O)c2c(-c3ccc(-c4ccccc4)cc3)n(C)n(-c3ccc(C(=N)N)cc3)c2=O)CC1 [compound 23] | 17 | 9.3
10 | Cn1c(-c2ccc(C(C)(C)C)cc2)c(C(=O)NCCOCC(=O)O)c(=O)n1-c1ccc(C(=N)N)cc1 [compound 24] | 46 | 19
11 | CCOC(=O)COCCNC(=O)c1c(-c2ccc(C(C)(C)C)cc2)n(C)n(-c2ccc(C(=N)N)cc2)c1=O [compound 25] | 43 | 20
12 | Cn1c(-c2ccc(C(C)(C)C)cc2)c(C(=O)NC2CCN(CC(=O)O)CC2)c(=O)n1-c1ccc(C(=N)N)cc1 [compound 109] | 3.4 | 4
13 | CCOC(=O)CN1CCC(NC(=O)c2c(-c3ccc(C(C)(C)C)cc3)n(C)n(-c3ccc(C(=N)N)cc3)c2=O)CC1 [compound 110] | 5 | 3.1
14 | CN(C(=O)c1c(-c2ccc(C(C)(C)C)cc2)n(C)n(-c2ccc(C(=N)N)cc2)c1=O)C1CCN(CC(=O)O)CC1 [compound 111] | 11 | 8.1
15 | CCOC(=O)CN1CCC(N(C)C(=O)c2c(-c3ccc(C(C)(C)C)cc3)n(C)n(-c3ccc(C(=N)N)cc3)c2=O)CC1 [compound 112] | 37 | 14
16 | CCOC(=O)CN(C=O)C1CCN(C(=O)c2c(-c3ccc(C(C)(C)C)cc3)n(C)n(-c3ccc(C(=N)N)cc3)c2=O)CC1 [compound 114] | 21 | 14
17 | CN(CC(=O)O)C1CCN(C(=O)c2c(-c3ccc(C(C)(C)C)cc3)n(C)n(-c3ccc(C(=N)N)cc3)c2=O)CC1 [compound 115] | 93 | 68
18 | CCOC(=O)CN(C)C1CCN(C(=O)c2c(-c3ccc(C(C)(C)C)cc3)n(C)n(-c3ccc(C(=N)N)cc3)c2=O)CC1 [compound 116] |  | 90
19 | Cn1c(-c2ccc(-c3ccccc3)cc2)c(C(=O)NC2CCN(CC(=O)O)CC2)c(=O)n1-c1ccc(C(=N)N)cc1 [compound 125] | 42 | 4.2
20 | CCOC(=O)CN1CCC(NC(=O)c2c(-c3ccc(-c4ccccc4)cc3)n(C)n(-c3ccc(C(=N)N)cc3)c2=O)CC1 [compound 126] | 76 | 7.6
21 | CCCCc1ccc(-c2c(C(=O)N3CCC(OCC(=O)OCC)CC3)c(=O)n(-c3ccc(C(=N)N)cc3)n2C)cc1 [compound 128] | 20 | 7.1
